Measured values: patent publication US7074789B2, “Kinase inhibitors” (Amgen Inc., priority 1999, dated 2006)

Columns and labels:
Format in all cases: biochemical
Lck = target: T1, Lck (Homo sapiens, UniProt P06239); experiment: Kinase inhibition assay (33P transfer), Lck; details: Table 3; read-out: Lck-1
T1 construct: Kinases are expressed as either kinase domains or full length constructs; made in house
Procedure, shortened: (§1)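 33P-ATP transfer to coated synthetic polymer substrates; acid wash (0.5% H3PO4), scintillant, liquid scintillation count. Enzymes: His- or GST-fusion kinases from E. coli or High Five insect cells.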

Lyn = target: T2, Lyn (Homo sapiens, UniProt P07948); experiment: Kinase inhibition assay (33P transfer), Lyn; details: Table 6, Lyn-1 kinase inhibition class
T2 construct: Kinases are expressed as either kinase domains or full length constructs; made in house
T2 sequence (P07948 whole entry, species assumed, the tested form may be a part): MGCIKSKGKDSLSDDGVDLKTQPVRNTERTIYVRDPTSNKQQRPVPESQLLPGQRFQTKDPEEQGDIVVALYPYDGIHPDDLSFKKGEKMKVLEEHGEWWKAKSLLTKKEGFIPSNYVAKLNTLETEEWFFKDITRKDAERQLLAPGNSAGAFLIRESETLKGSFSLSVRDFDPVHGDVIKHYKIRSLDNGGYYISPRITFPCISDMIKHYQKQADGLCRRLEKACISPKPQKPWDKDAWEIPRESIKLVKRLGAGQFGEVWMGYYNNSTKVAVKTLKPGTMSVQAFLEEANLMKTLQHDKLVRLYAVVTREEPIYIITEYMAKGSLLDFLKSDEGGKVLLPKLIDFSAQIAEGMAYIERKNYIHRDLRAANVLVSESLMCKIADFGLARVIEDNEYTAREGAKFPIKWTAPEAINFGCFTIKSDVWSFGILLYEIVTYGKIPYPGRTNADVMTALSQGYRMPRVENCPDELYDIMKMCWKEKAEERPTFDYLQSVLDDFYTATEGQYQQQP
Procedure, shortened: (§2)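 Kinase domains or full-length enzymes, GST- or polyHis-tagged, were expressed in E. coli or baculovirus High Five cells and affinity-purified. Transfer of 33PO4 from ATP onto plate-bound poly(Glu,Tyr) 4:1 or poly(Arg,Ser) 3:1 was counted by liquid scintillation after a 0.5% phosphoric acid wash. IC50 = concentration halving incorporation.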

Src = target: T3, Src (Homo sapiens, UniProt P12931); experiment: Kinase inhibition assay (33P transfer), Src; details: Table 6, Src-1 kinase inhibition class
T3 construct: Kinases are expressed as either kinase domains or full length constructs; made in house
T3 sequence (P12931 whole entry, species assumed, the tested form may be a part): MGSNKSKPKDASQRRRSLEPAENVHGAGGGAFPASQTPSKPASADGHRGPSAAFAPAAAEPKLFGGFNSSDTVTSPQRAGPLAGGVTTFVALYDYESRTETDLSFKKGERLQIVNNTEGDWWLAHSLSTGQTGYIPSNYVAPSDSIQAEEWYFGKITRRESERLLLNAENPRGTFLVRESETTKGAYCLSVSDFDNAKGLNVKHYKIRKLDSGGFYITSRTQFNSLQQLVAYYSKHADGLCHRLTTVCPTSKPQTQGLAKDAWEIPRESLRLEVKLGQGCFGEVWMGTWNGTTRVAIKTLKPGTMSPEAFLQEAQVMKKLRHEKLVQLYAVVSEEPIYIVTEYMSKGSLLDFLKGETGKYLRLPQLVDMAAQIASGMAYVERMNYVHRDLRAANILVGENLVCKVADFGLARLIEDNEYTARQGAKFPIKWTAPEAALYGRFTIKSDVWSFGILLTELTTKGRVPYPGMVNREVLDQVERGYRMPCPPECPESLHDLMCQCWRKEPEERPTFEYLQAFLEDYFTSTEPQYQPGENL
Procedure, shortened: as §2

Fyn = target: T4, Fyn (Homo sapiens, UniProt P06241); experiment: Kinase inhibition assay (33P transfer), Fyn; details: read-out: Fyn-1
T4 construct: Kinases are expressed as either kinase domains or full length constructs; made in house
Procedure, shortened: as §2

EGFR = target: T5, EGFR (Homo sapiens, UniProt P00533); experiment: Kinase inhibition assay (33P transfer), EGFR; details: Table 2, kinase inhibition class; read-out: EGFR-1
T5 construct: Kinases are expressed as either kinase domains or full length constructs; made in house
Procedure, shortened: as §2

Flt-1 = target: T6, Flt-1 (Homo sapiens, UniProt P17948); experiment: Kinase inhibition assay (33P transfer), Flt-1
T6 construct: Kinases are expressed as either kinase domains or full length constructs; made in house
T6 sequence (P17948 27-1338, species assumed): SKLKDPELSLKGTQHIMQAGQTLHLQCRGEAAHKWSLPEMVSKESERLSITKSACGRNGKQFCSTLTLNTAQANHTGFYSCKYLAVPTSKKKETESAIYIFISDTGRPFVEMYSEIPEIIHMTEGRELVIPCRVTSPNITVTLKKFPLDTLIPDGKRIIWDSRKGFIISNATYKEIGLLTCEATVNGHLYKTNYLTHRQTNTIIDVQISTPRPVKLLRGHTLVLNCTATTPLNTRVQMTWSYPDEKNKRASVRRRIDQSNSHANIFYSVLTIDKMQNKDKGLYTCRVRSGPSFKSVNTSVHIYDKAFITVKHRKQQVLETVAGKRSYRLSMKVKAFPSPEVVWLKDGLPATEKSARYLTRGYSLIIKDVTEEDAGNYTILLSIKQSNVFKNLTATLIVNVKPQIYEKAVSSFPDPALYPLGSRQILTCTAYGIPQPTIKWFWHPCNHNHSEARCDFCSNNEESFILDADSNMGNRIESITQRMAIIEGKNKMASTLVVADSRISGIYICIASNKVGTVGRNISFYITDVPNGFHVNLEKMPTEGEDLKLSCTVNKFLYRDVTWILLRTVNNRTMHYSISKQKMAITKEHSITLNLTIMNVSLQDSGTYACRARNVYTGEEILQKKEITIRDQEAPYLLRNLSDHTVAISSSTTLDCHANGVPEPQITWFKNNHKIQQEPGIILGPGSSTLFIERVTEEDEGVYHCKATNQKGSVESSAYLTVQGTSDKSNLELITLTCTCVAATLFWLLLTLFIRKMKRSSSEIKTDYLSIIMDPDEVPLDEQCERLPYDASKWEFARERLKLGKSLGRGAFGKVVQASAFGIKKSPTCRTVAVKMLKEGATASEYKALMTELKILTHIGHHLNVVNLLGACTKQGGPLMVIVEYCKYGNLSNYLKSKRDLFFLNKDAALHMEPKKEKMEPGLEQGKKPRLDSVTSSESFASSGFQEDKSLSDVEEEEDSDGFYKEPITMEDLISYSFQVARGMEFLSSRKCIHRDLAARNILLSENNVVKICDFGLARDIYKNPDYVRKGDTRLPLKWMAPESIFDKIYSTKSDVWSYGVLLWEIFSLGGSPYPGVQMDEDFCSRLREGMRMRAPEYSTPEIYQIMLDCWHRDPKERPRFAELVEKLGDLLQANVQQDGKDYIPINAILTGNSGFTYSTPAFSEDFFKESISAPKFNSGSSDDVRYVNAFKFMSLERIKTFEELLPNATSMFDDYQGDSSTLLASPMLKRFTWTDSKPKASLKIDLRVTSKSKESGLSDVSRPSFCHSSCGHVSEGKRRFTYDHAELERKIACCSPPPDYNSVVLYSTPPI
Procedure, shortened: as §2

c-Met = target: T7, c-Met (Homo sapiens, UniProt P08581); experiment: Kinase inhibition assay (33P transfer), c-Met; details: Table 2, kinase inhibition class; read-out: Met-1
T7 construct: Kinases are expressed as either kinase domains or full length constructs; made in house
Procedure, shortened: as §2

AKT = target: T8, AKT (Homo sapiens, UniProt Q9Y243); experiment: Kinase inhibition assay (33P transfer), AKT; details: Table 2, kinase inhibition class; read-out: AKT3-1
T8 construct: Kinases are expressed as either kinase domains or full length constructs; made in house
T8 sequence (Q9Y243 whole entry, the tested form may be a part): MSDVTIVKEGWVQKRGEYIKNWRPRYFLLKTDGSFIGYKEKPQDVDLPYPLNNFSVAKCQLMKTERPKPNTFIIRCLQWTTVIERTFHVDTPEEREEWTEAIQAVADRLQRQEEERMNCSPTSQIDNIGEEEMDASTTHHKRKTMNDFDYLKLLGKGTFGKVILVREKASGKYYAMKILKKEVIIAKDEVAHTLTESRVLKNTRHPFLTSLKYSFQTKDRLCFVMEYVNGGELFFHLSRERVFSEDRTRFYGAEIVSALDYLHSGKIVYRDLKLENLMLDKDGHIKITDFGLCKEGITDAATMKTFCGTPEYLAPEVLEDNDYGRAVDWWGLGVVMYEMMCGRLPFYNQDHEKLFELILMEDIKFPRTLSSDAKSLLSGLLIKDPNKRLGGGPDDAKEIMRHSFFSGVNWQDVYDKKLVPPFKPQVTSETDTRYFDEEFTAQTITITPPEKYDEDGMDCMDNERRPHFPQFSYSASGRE
Procedure, shortened: as §1

IGFR-1 = target: T9, IGFR-1 (Homo sapiens, UniProt P08069); experiment: Kinase inhibition assay (33P transfer), IGFR-1; details: Table 2, kinase inhibition class
T9 construct: Kinases are expressed as either kinase domains or full length constructs; made in house

PDGFRB = target: T10, PDGFRB (Homo sapiens, UniProt P09619); experiment: Kinase inhibition assay (33P transfer), PDGFRB; details: read-out: PDGFRB-1
T10 construct: Kinases are expressed as either kinase domains or full length constructs; made in house

EPHB4 = target: T11, EPHB4 (Homo sapiens, UniProt P54760); experiment: Kinase inhibition assay (33P transfer), EPHB4; details: read-out: EPHB4-1
T11 construct: Kinases are expressed as either kinase domains or full length constructs; made in house
T11 sequence (P54760 16-987): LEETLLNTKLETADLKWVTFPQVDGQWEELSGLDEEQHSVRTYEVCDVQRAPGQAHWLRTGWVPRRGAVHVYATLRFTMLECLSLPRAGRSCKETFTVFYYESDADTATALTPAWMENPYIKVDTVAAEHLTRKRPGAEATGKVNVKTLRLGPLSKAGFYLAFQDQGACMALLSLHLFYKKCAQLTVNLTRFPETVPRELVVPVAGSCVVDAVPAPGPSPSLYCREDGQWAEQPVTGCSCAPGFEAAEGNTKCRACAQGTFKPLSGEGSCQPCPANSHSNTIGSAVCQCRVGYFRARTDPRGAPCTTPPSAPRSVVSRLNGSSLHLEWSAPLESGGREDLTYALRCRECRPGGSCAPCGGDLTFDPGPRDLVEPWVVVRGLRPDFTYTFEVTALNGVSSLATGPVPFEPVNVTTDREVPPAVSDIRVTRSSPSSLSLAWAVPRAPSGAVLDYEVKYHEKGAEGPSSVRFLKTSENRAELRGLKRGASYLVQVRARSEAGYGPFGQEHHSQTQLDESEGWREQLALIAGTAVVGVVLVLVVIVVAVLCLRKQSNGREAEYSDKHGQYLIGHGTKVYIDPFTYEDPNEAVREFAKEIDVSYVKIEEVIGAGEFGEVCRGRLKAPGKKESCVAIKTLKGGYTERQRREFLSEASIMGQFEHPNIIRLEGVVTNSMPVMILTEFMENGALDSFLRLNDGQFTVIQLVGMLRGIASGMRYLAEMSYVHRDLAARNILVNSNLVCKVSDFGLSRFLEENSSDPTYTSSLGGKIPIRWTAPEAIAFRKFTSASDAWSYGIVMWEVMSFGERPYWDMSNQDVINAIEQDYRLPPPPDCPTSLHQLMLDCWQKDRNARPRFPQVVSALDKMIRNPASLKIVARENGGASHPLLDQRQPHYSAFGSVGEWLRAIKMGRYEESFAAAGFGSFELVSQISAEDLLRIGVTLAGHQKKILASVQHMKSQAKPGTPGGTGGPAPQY

Hck-1 = target: T12, Hck-1 (Homo sapiens, UniProt P08631); experiment: Kinase inhibition assay (33P transfer), Hck; details: Table 6, Hck-1 kinase inhibition class
T12 construct: Kinases are expressed as either kinase domains or full length constructs; made in house
T12 sequence (P08631 whole entry, the tested form may be a part): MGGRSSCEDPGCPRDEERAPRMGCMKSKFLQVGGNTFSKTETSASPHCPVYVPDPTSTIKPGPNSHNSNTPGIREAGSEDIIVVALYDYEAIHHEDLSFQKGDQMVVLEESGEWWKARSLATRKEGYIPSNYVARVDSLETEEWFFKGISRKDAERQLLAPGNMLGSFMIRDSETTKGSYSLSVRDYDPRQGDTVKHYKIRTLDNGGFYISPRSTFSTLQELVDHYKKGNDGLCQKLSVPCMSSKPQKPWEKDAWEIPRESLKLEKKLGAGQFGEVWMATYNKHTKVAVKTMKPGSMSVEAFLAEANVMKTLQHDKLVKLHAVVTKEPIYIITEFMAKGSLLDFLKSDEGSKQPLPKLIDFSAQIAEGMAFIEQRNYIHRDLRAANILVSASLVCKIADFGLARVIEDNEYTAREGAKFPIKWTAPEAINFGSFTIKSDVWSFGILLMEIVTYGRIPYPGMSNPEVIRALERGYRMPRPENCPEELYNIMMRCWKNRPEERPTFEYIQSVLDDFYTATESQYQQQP

FGFR1 = target: T13, FGFR1 (Homo sapiens, UniProt P11362); experiment: Kinase inhibition assay (33P transfer), FGFR1; details: read-out: FGFR1-1
T13 construct: Kinases are expressed as either kinase domains or full length constructs; made in house
T13 sequence (P11362 22-822, species assumed): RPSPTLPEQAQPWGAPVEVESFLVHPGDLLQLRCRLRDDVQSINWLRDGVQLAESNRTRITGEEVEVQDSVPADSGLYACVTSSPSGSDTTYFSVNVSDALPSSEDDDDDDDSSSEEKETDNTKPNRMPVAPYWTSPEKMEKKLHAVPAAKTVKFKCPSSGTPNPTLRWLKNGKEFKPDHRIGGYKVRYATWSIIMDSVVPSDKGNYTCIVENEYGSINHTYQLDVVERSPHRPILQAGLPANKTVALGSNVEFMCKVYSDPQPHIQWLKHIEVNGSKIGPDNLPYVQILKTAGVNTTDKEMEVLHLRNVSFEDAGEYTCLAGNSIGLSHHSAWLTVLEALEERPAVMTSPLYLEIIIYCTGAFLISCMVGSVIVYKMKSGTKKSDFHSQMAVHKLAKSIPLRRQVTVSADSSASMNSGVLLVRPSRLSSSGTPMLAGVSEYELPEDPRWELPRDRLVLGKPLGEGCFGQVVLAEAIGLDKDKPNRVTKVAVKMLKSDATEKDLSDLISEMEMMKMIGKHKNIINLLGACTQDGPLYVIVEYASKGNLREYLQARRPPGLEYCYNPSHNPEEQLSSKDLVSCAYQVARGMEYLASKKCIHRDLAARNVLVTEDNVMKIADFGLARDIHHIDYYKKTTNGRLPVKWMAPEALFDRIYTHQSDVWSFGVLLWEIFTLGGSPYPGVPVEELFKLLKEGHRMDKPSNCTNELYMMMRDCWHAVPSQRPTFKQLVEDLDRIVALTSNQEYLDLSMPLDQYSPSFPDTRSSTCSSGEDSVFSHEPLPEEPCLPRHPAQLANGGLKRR

Tek = target: T14, Tek (Homo sapiens, UniProt Q02763); experiment: Kinase inhibition assay (33P transfer), Tek; details: read-out: Tek-1
T14 construct: Kinases are expressed as either kinase domains or full length constructs; made in house
Procedure, shortened: as §2

T1 sequence (P06239 whole entry, species assumed, the tested form may be a part): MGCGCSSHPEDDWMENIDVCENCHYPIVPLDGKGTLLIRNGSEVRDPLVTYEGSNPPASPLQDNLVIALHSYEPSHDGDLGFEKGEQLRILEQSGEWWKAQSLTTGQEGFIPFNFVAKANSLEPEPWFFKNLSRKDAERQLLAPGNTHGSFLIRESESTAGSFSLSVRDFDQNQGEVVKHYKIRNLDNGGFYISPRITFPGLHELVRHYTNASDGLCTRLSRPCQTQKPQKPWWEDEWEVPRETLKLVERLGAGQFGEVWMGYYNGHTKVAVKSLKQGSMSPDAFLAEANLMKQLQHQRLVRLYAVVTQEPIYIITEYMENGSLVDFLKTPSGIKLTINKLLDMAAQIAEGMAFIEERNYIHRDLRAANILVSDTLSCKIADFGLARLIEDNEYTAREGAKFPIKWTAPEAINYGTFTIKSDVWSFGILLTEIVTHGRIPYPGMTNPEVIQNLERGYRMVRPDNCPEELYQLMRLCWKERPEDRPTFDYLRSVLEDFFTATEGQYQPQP

SMILES | IC50 (Lck) | IC50 (Lyn) | IC50 (Src) | IC50 (Fyn) | IC50 (EGFR) | IC50 (Flt-1) | IC50 (c-Met) | IC50 (AKT) | IC50 (IGFR-1) | IC50 (PDGFRB) | IC50 (EPHB4) | IC50 (Hck-1) | IC50 (FGFR1) | IC50 (Tek)
COc1ccc(Nc2ncnc(Nc3cc(OC)c(OC)c(OC)c3)n2)cc1 [Compound 89] | 1.04 to 6.26 µM | 1.04 to 6.26 µM | 6.26 to 9.13 µM | 1.04 to 6.26 µM | 1.04 to 6.26 µM | < 1.04 µM | > 11.7 µM | > 11.7 µM | 1.04 to 6.26 µM | < 1.04 µM | > 11.7 µM | > 11.7 µM | > 11.7 µM | > 11.7 µM
COc1cc(Nc2ncnc(Nc3ccc4c(c3)Cc3ccccc3-4)n2)cc(OC)c1OC [Compound 95] | 0.906 to 5.44 µM | 5.44 to 7.93 µM | > 10.2 µM | 0.906 to 5.44 µM | > 10.2 µM |  | > 10.2 µM | > 10.2 µM | 0.906 to 5.44 µM |  | 7.93 to 10.2 µM | > 10.2 µM |  | > 10.2 µM
COc1cc(Nc2ncnc(Nc3ccc(C(C)C)cc3)n2)cc(OC)c1OC [Compound 66] | 1.01 to 6.07 µM | 1.01 to 6.07 µM | < 1.01 µM | > 11.4 µM | > 11.4 µM | > 11.4 µM | 1.01 to 6.07 µM | > 11.4 µM | < 1.01 µM | > 11.4 µM | 8.85 to 11.4 µM | > 11.4 µM | > 11.4 µM | 6.07 to 8.85 µM
COc1cc(Nc2ncnc(Nc3cc(C)[nH]n3)n2)cc(OC)c1OC [Compound 88] | 1.12 to 6.72 µM | 1.12 to 6.72 µM | 1.12 to 6.72 µM | 1.12 to 6.72 µM | 9.79 to 12.6 µM |  | 1.12 to 6.72 µM | > 12.6 µM | 1.12 to 6.72 µM |  | 1.12 to 6.72 µM | 9.79 to 12.6 µM |  | > 12.6 µM
COc1cccc(-c2ncnc(Nc3cc(OC)c(OC)c(OC)c3)n2)c1 [Compound 232] | 1.09 to 6.51 µM | > 12.2 µM | > 12.2 µM | > 12.2 µM | 6.51 to 9.5 µM |  | > 12.2 µM | > 12.2 µM | > 12.2 µM |  | > 12.2 µM | > 12.2 µM |  | > 12.2 µM
COc1cc(Nc2ncnc(Nc3ccc(N4CCOCC4)cc3)n2)cc(OC)c1OC [Compound 101] | 5.47 to 7.98 µM | 5.47 to 7.98 µM | 0.912 to 5.47 µM | 0.912 to 5.47 µM | > 10.3 µM |  | > 10.3 µM | > 10.3 µM | > 10.3 µM |  | > 10.3 µM | > 10.3 µM |  | 7.98 to 10.3 µM
COc1cc(Nc2ncnc(Nc3ccc(Br)cc3)n2)cc(OC)c1OC [Compound 82] | 0.925 to 5.55 µM |  |  |  | 0.925 to 5.55 µM | < 0.925 µM | > 10.4 µM | > 10.4 µM | 0.925 to 5.55 µM | < 0.925 µM | 0.925 to 5.55 µM |  | 0.925 to 5.55 µM | > 10.4 µM
COC(=O)c1cccc(Nc2nc3ccccc3n2-c2ncnc(Nc3cc(OC)c(OC)c(OC)c3)n2)c1 [Compound 383] | 4.55 to 6.63 µM |  |  |  | > 8.53 µM |  | > 8.53 µM | > 8.53 µM | > 8.53 µM |  | > 8.53 µM |  |  | 4.55 to 6.63 µM

Other lines, results leading:

IC50 (Lck) | IC50 (Lyn) | IC50 (Src) | IC50 (Fyn) | IC50 (EGFR) | IC50 (Flt-1) | IC50 (c-Met) | IC50 (AKT) | IC50 (IGFR-1) | IC50 (PDGFRB) | IC50 (EPHB4) | IC50 (Hck-1) | IC50 (FGFR1) | IC50 (Tek) | SMILES
1.01 to 6.05 µM | 1.01 to 6.05 µM | 1.01 to 6.05 µM | 1.01 to 6.05 µM | 6.05 to 8.83 µM | < 1.01 µM | 8.83 to 11.4 µM | > 11.4 µM | < 1.01 µM | > 11.4 µM | > 11.4 µM | > 11.4 µM | 1.01 to 6.05 µM |  | COc1cc(Nc2ncnc(Nc3ccc(N(C)C)cc3)n2)cc(OC)c1OC [Compound 27]
> 12.2 µM | 1.09 to 6.51 µM | 9.5 to 12.2 µM | > 12.2 µM | 1.09 to 6.51 µM | 6.51 to 9.5 µM | 1.09 to 6.51 µM | 9.5 to 12.2 µM | 1.09 to 6.51 µM | 1.09 to 6.51 µM | 6.51 to 9.5 µM | > 12.2 µM | 6.51 to 9.5 µM | 6.51 to 9.5 µM | COc1cc(Nc2ncnc(Nc3ccc(N)cc3)n2)cc(OC)c1OC [Compound 92]
0.989 to 5.93 µM | 8.65 to 11.1 µM | 0.989 to 5.93 µM | 0.989 to 5.93 µM | 0.989 to 5.93 µM | 0.989 to 5.93 µM | 8.65 to 11.1 µM | > 11.1 µM |  | 0.989 to 5.93 µM | < 0.989 µM | 8.65 to 11.1 µM | 0.989 to 5.93 µM | > 11.1 µM | COc1cc(Nc2ncnc(Nc3cnc4ccccc4c3)n2)cc(OC)c1OC [Compound 99]
0.902 to 5.41 µM | 0.902 to 5.41 µM | < 0.902 µM | 0.902 to 5.41 µM | 7.89 to 10.1 µM |  | > 10.1 µM | > 10.1 µM | 0.902 to 5.41 µM |  | 0.902 to 5.41 µM | > 10.1 µM |  | > 10.1 µM | COc1cc(Nc2ncnc(Nc3cc(OC)c(OC)c(OC)c3)n2)cc(OC)c1OC [Compound 76]
